Consider 40 compounds from US8119563B2, “N-substituted azacycles” (FMC Corporation, priority 2003, dated 2012).

The subject of the series is tobacco budworm (Heliothis virescens [Fabricius]). The series can be described thus: surface-treated diet test, insecticidal activity against tobacco budworm. The settings on record: 0.25 millimoles of candidate insecticide on the surface of the diet, second instar larvae, five-day exposure. The class given is in vivo. More on the design: mortality: concentration or dose not given beside the values. Put shortly: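 Second-instar larvae (~5 mg) were held five days at 25° C and 60% RH on artificial diet whose surface carried dried compound (0.25 millimolar standard rate; DMSO serial dilutions for rate series, six replicates each). Readouts: mortality and weight inhibition relative to DMSO-treated controls.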

The mark [1] stands for this setting: compared to total number of insects infested.
Where [2] appears, read: inhibition of insect weight relative to untreated controls.

In the case of `N#Cc1ccc(Oc2ccc(CN3CCC(O)(C(c4ccc(OC(F)(F)F)cc4)c4ccc(OC(F)(F)F)cc4)CC3)cc2)nc1` [Compound 283], the “Percent Mortality” value under setting [1] is listed as 100%. For the same compound, the “Percent Growth Inhibition” value under setting [2] is given as 100%.

`CONC(=O)c1ccc(CN2CCC(O)(C(c3ccc(OC(F)(F)F)cc3)c3ccc(OC(F)(F)F)cc3)CC2)cc1` [Compound 285]: the “Percent Mortality” value under setting [1] was 100%. The “Percent Growth Inhibition” value under setting [2] worked out at 100%.

As for `OC1(C(c2ccc(OC(F)(F)F)cc2)c2ccc(OC(F)(F)F)cc2)CCN(Cc2ccc(Oc3cccc(Cl)c3)cc2)CC1` [Compound 286], the “Percent Mortality” value under setting [1] came to 100%. Also, under setting [2], the “Percent Growth Inhibition” value was 100%.

In the case of `OC1(C(c2ccc(OC(F)(F)F)cc2)c2ccc(OC(F)(F)F)cc2)CCN(Cc2ccc(Oc3ccc(Cl)cc3)cc2)CC1` [Compound 290], the “Percent Mortality” value under setting [1] is listed as 100%. Under setting [2], the “Percent Growth Inhibition” value amounted to 100%.

Turning to `CCOC(=O)COc1ccc(CN2CCC(O)(C(c3ccc(C(F)(F)F)cc3)c3ccc(C(F)(F)F)cc3)CC2)cc1` [Compound 291], under setting [1], the “Percent Mortality” value is listed as 17%. The “Percent Growth Inhibition” value under setting [2] came to 100%.

Consider `OC1(C(c2ccc(OC(F)(F)F)cc2)c2ccc(OC(F)(F)F)cc2)CCN(Cc2ccc(C3OCCCO3)cc2)CC1` [Compound 292], for which the “Percent Mortality” value under setting [1] was 100%. Further, under setting [2], the “Percent Growth Inhibition” value came out at 100%.

For `OC1(C(c2ccc(OC(F)(F)F)cc2)c2ccc(OC(F)(F)F)cc2)CCN(Cc2ccc(OCC=C(Cl)Cl)cc2)CC1` [Compound 293], the “Percent Mortality” value under setting [1] is listed as 100%. Also, under setting [2], the “Percent Growth Inhibition” value came out at 100%.

Turning to `OC1(C(c2ccc(OC(F)(F)F)cc2)c2ccc(OC(F)(F)F)cc2)CCN(Cc2ccc(Oc3ccccc3Cl)cc2)CC1` [Compound 297], under setting [1], the “Percent Mortality” value was found to be 100%. The “Percent Growth Inhibition” value under setting [2] was found to be 100%.

For `O=C(NC1CC1)Oc1ccc(CN2CCC(O)(C(c3ccc(OC(F)(F)F)cc3)c3ccc(OC(F)(F)F)cc3)CC2)cc1` [Compound 298], under setting [1], the “Percent Mortality” value turned out to be 100%. Moreover, the “Percent Growth Inhibition” value under setting [2] came out at 100%.

Turning to `OC1(C(c2ccc(C(F)(F)F)cc2)c2ccc(C(F)(F)F)cc2)CCN(Cc2ccc(OCC3CC3)cc2)CC1` [Compound 299], under setting [1], the “Percent Mortality” value amounted to 100%. In addition, the “Percent Growth Inhibition” value under setting [2] came out at 100%.

As for `CCCNC(=O)Oc1ccc(CN2CCC(O)(C(c3ccc(OC(F)(F)F)cc3)c3ccc(OC(F)(F)F)cc3)CC2)cc1` [Compound 300], the “Percent Mortality” value under setting [1] was 100%. Also, the “Percent Growth Inhibition” value under setting [2] turned out to be 100%.

With `OC1(C(c2ccc(OC(F)(F)F)cc2)c2ccc(OC(F)(F)F)cc2)CCN(Cc2ccc(C=NOCC(F)(F)F)cc2)CC1` [Compound 301], under setting [1], the “Percent Mortality” value is listed as 100%. Under setting [2], the “Percent Growth Inhibition” value is 100%.

On to `Oc1ccc(CN2CCC(O)(C(c3ccc(C(F)(F)F)cc3)c3ccc(C(F)(F)F)cc3)CC2)cc1` [Compound 302], for which the “Percent Mortality” value under setting [1] was determined as 17%. For the same compound, the “Percent Growth Inhibition” value under setting [2] turned out to be 100%.

Turning to `CC(C)Oc1ccc(CN2CCC(O)(C(c3ccc(C(F)(F)F)cc3)c3ccc(C(F)(F)F)cc3)CC2)cc1` [Compound 303], the “Percent Mortality” value under setting [1] came to 100%. The “Percent Growth Inhibition” value under setting [2] is listed as 100%.

Turning to `OC1(C(c2ccc(OC(F)(F)F)cc2)c2ccc(OC(F)(F)F)cc2)CCN(Cc2ccc(OCc3ccccc3)cc2)CC1` [Compound 304], the “Percent Mortality” value under setting [1] was 100%. Under setting [2], the “Percent Growth Inhibition” value is on record as 100%.

As for `CC(C)=CCCC(C)=CCON=Cc1ccc(CN2CCC(O)(C(c3ccc(OC(F)(F)F)cc3)c3ccc(OC(F)(F)F)cc3)CC2)cc1` [Compound 305], the “Percent Mortality” value under setting [1] was 0%. Besides, under setting [2], the “Percent Growth Inhibition” value came out at 31%.

In the case of `OC1(C(c2ccc(OC(F)(F)C(F)C(F)(F)F)cc2)c2ccc(OC(F)(F)C(F)C(F)(F)F)cc2)CCN(Cc2ccc(Oc3ncccn3)cc2)CC1` (centres unmarked) [Compound 306], the “Percent Mortality” value under setting [1] worked out at 100%. The “Percent Growth Inhibition” value under setting [2] is reported as 100%.

In the case of `OC1(C(c2ccc(C(F)(F)F)cc2)c2ccc(C(F)(F)F)cc2)CCN(Cc2ccc(Oc3ccc(Cl)nn3)cc2)CC1` [Compound 307], under setting [1], the “Percent Mortality” value is recorded as 100%. The “Percent Growth Inhibition” value under setting [2] turned out to be 100%.

One may read the mortality as the percentage killed. Regarding `COCCOc1ccc(CN2CCC(O)(C(c3ccc(OC(F)(F)F)cc3)c3ccc(OC(F)(F)F)cc3)CC2)cc1` [Compound 308, 4-{bis[4-(trifluoromethoxy)phenyl]methyl}-1-{[4-(2-methoxyethoxy)phenyl]methyl}piperidin-4-ol], the mortality (Heliothis virescens, 120 h, compared to total number of insects infested, read-out: Percent Mortality) worked out at 100%. The pest or weed control at 0.25 mmol/well (Heliothis virescens, 120 h, inhibition of insect weight relative to untreated controls, read-out: Percent Growth Inhibition) came out at 100%.

As for `OC1(C(c2ccc(OC(F)(F)F)cc2)c2ccc(OC(F)(F)F)cc2)CCN(Cc2ccc(-c3ccccn3)cc2)CC1` [Compound 309], the “Percent Mortality” value under setting [1] is 100%. Further, the “Percent Growth Inhibition” value under setting [2] came to 100%.

On to `CCCOC(=O)Nc1ccc(CN2CCC(O)(C(c3ccc(OC(F)(F)F)cc3)c3ccc(OC(F)(F)F)cc3)CC2)cc1` [Compound 310], for which the “Percent Mortality” value under setting [1] worked out at 100%. Further, under setting [2], the “Percent Growth Inhibition” value was determined as 100%.

For `CC(C)(C)NC(=O)Oc1ccc(CN2CCC(O)(C(c3ccc(OC(F)(F)F)cc3)c3ccc(OC(F)(F)F)cc3)CC2)cc1` [Compound 311], under setting [1], the “Percent Mortality” value amounted to 100%. In addition, the “Percent Growth Inhibition” value under setting [2] was 100%.

With `OC1(C(c2ccc(OC(F)(F)F)cc2)c2ccc(OC(F)(F)F)cc2)CCN(Cc2ccc(C=NOCCF)cc2)CC1` [Compound 312], the “Percent Mortality” value under setting [1] is given as 100%. In addition, the “Percent Growth Inhibition” value under setting [2] is recorded as 100%.

`CCCOC(=O)Nc1ccc(CN2CCC(O)(C(c3ccc(C(F)(F)F)cc3)c3ccc(C(F)(F)F)cc3)CC2)cc1` [Compound 313]: the “Percent Mortality” value under setting [1] is recorded as 100%. The “Percent Growth Inhibition” value under setting [2] is listed as 100%.

Regarding `OC1(C(c2ccc(OC(F)(F)F)cc2)c2ccc(OC(F)(F)F)cc2)CCN(Cc2ccc(OCC3CC3)cc2)CC1` [Compound 315], the “Percent Mortality” value under setting [1] was 100%. In addition, the “Percent Growth Inhibition” value under setting [2] was 100%.

For the compound `OC1(C(c2ccc(C(F)(F)F)cc2)c2ccc(C(F)(F)F)cc2)CCN(Cc2ccc(OCc3ccccc3)cc2)CC1` [Compound 316], the “Percent Mortality” value under setting [1] came to 67%. In addition, the “Percent Growth Inhibition” value under setting [2] is reported as 100%.

For the compound `CCOC(=O)CNC(=O)Oc1ccc(CN2CCC(O)(C(c3ccc(OC(F)(F)F)cc3)c3ccc(OC(F)(F)F)cc3)CC2)cc1` [Compound 317], the “Percent Mortality” value under setting [1] came out at 100%. Further, the “Percent Growth Inhibition” value under setting [2] was found to be 100%.

Regarding `O=C(Nc1ccc(CN2CCC(O)(C(c3ccc(C(F)(F)F)cc3)c3ccc(C(F)(F)F)cc3)CC2)cc1)OCC1CC1` [Compound 319], the “Percent Mortality” value under setting [1] worked out at 100%. Besides, the “Percent Growth Inhibition” value under setting [2] was determined as 100%.

Regarding `O=C(NC1CCCC1)Oc1ccc(CN2CCC(O)(C(c3ccc(OC(F)(F)F)cc3)c3ccc(OC(F)(F)F)cc3)CC2)cc1` [Compound 320], the “Percent Mortality” value under setting [1] amounted to 100%. In addition, under setting [2], the “Percent Growth Inhibition” value is on record as 100%.

With `Cc1ccnc(Oc2ccc(CN3CCC(O)(C(c4ccc(OC(F)(F)F)cc4)c4ccc(OC(F)(F)F)cc4)CC3)cc2)c1` [Compound 321], the “Percent Mortality” value under setting [1] is 100%. Further, under setting [2], the “Percent Growth Inhibition” value was 100%.

As to `OC1(C(c2ccc(OC(F)(F)F)cc2)c2ccc(OC(F)(F)F)cc2)CCN(Cc2ccc(Oc3ncccc3Cl)cc2)CC1` [Compound 322], the “Percent Mortality” value under setting [1] came out at 100%. Moreover, the “Percent Growth Inhibition” value under setting [2] amounted to 100%.

For the compound `O=C(NCc1ccc(Cl)c(Cl)c1)Oc1ccc(CN2CCC(O)(C(c3ccc(OC(F)(F)F)cc3)c3ccc(OC(F)(F)F)cc3)CC2)cc1` [Compound 323], the “Percent Mortality” value under setting [1] stood at 33%. The “Percent Growth Inhibition” value under setting [2] was 100%.

Regarding `O=C(Nc1ccc(Cl)cc1)Oc1ccc(CN2CCC(O)(C(c3ccc(OC(F)(F)F)cc3)c3ccc(OC(F)(F)F)cc3)CC2)cc1` [Compound 324], the “Percent Mortality” value under setting [1] came out at 33%. Besides, the “Percent Growth Inhibition” value under setting [2] is given as 100%.

As to `CCCCNC(=O)Oc1ccc(CN2CCC(O)(C(c3ccc(OC(F)(F)F)cc3)c3ccc(OC(F)(F)F)cc3)CC2)cc1` [Compound 326], the “Percent Mortality” value under setting [1] came to 100%. Moreover, the “Percent Growth Inhibition” value under setting [2] is 100%.

Regarding `O=C(Nc1ccc(CN2CCC(O)(C(c3ccc(OC(F)(F)F)cc3)c3ccc(OC(F)(F)F)cc3)CC2)cc1)OCC1CC1` [Compound 327], the “Percent Mortality” value under setting [1] turned out to be 100%. Also, the “Percent Growth Inhibition” value under setting [2] is given as 100%.

Turning to `O=C(NC1CCCCC1)Oc1ccc(CN2CCC(O)(C(c3ccc(OC(F)(F)F)cc3)c3ccc(OC(F)(F)F)cc3)CC2)cc1` [Compound 329], the “Percent Mortality” value under setting [1] turned out to be 67%. In addition, under setting [2], the “Percent Growth Inhibition” value is recorded as 100%.

As to `CC(C)OC(=O)c1ccc(CN2CCC(O)(C(c3ccc(C(F)(F)F)cc3)c3ccc(C(F)(F)F)cc3)CC2)cc1` [Compound 330], the “Percent Mortality” value under setting [1] is recorded as 100%. Moreover, under setting [2], the “Percent Growth Inhibition” value amounted to 100%.

Regarding `CC(C)(C)c1ccc(C(c2ccc(OC(F)(F)F)cc2)C2(O)CC[N+]([O-])(Cc3ccc(Oc4ccccn4)cc3)CC2)cc1` (centres unmarked) [Compound 335], under setting [1], the “Percent Mortality” value was found to be 100%. For the same compound, the “Percent Growth Inhibition” value under setting [2] turned out to be 100%.

On to `COCCOCCON=Cc1ccc(C[N+]2([O-])CCC(O)(C(c3ccc(OC(F)(F)F)cc3)c3ccc(OC(F)(F)F)cc3)CC2)cc1` (centres unmarked) [Compound 336], for which the “Percent Mortality” value under setting [1] is 100%. Also, the “Percent Growth Inhibition” value under setting [2] is listed as 100%.

For `CCOCON=Cc1ccc(C[N+]2([O-])CCC(O)(C(c3ccc(OC(F)(F)F)cc3)c3ccc(OC(F)(F)F)cc3)CC2)cc1` (centres unmarked) [Compound 337], the “Percent Mortality” value under setting [1] stood at 100%. Further, the “Percent Growth Inhibition” value under setting [2] was found to be 100%.
